Reference: US7601686B2, “Hepatitis C virus inhibitors” (Bristol-Myers Squibb Company, priority 2005, dated 2009)
Like-named read-outs stand apart in the source and are kept apart here.

Tests used:
[1] = target: T1, HCV NS3/4A protease complex, BMS strain (UniProt P27958, species not given/STRAIN_BMS); assay: FRET peptide assay to monitor HCV NS3/4A proteolytic activity (BMS strain); format: biochemical, Hepatitis C virus (genotype 1a)
T1 construct: DNA encoding the recombinant HCV NS3/4A protease complex (amino acids 1027 to 1711) for these strains [H77 and J4L6S]; fused on or other part: For the H77 and J4L6S constructs, a three-lysine solubilising tail at the NS4A C-terminus and a Ni-NTA-purifiable tag from pET21b
Source text: Generation of Recombinant HCV NS3/4A Protease Complex
HCV NS3 protease complexes, derived from the BMS strain, H77 strain or J4L6S strain, were generated, as described below. These purified recombinant proteins were generated for use in a homogeneous assay (see below) to provide an indication of how effective compounds of the present disclosure would be in inhibiting HCV NS3 proteolytic activity.
Serum from an HCV-infected patient was obtained from Dr. T. Wright, San Francisco Hospital. An engineered full-length cDNA (compliment deoxyribonucleic acid) template of the HCV genome (BMS strain) was constructed from DNA fragments obtained by reverse transcription-PCR (RT-PCR) of serum RNA (ribonucleic acid) and using primers selected on the basis of homology between other genotype 1a strains. From the determination of the entire genome sequence, a genotype 1a was assigned to the HCV isolate according to the classification of Simmonds et al. (See P Simmonds, K A Rose, S Graham, S W Chan, F McOmish, B C Dow, E A Follett, P L Yap and H Marsden, J. Clin. Microbiol., 31(6), 1493-1503 (1993)). […] The infectious clones, H77 (1a genotype) and J4L6S (1b genotype) were obtained from R. Purcell (NIH) and the sequences are published in Genbank (AAB67036, see Yanagi, M., Purcell, R. H., Emerson, S. U. and Bukh, J. Proc. Natl. Acad. Sci. U.S.A. 94(16), 8738-8743 (1997); AF054247, see Yanagi, M., St Claire, M., Shapiro, M., Emerson, S. U., Purcell, R. H. and Bukh, J, Virology 244 (1), 161-172. (1998)).
The H77 and J4L6S strains were used for production of recombinant NS3/4A protease complexes. DNA encoding the recombinant HCV NS3/4A protease complex (amino acids 1027 to 1711) for these strains were manipulated as described by P. Gallinari et al. (see Gallinari P, Paolini C, Brennan D, Nardi C, Steinkuhler C, De Francesco R. Biochemistry. 38(17):5620-32, (1999)). Briefly, a three-lysine solubilizing tail was added at the 3′-end of the NS4A coding region. The cysteine in the P1 position of the NS4A-NS4B cleavage site (amino acid 1711) was changed to a glycine to avoid the proteolytic cleavage of the lysine tag. Furthermore, a cysteine to serine mutation was introduced by PCR at amino acid position 1454 to prevent the autolytic cleavage in the NS3 helicase domain. The variant DNA fragment was cloned in the pET21b bacterial expression vector (Novagen) and the NS3/4A complex was expressed in Escherichia coli strain BL21 (DE3) (Invitrogen) following the protocol described by P. Gallinari et al. (see Gallinari P, Brennan D, Nardi C, Brunetti M, Tomei L, Steinkuhler C, De Francesco R., J. Virol. 72(8):6758-69 (1998)) with modifications. Briefly, the NS3/4A protease complex expression was induced with 0.5 millimolar (mM) Isopropyl β-D-1-thiogalactopyranoside (IPTG) for 22 hours (h) at 20° C. A typical fermentation (1 Liter (L)) yielded approximately 10 grams (g) of wet cell paste. The cells were resuspended in lysis buffer (10 mL/g) consisting of 25 mM N-(2-Hydroxyethyl)piperazine-N′-(2-Ethane Sulfonic acid) (HEPES), pH 7.5, 20% glycerol, 500 mM Sodium Chloride (NaCl), 0.5% Triton X-100, 1 microgram/milliliter (“μg/mL”) lysozyme, 5 mM Magnesium Chloride (MgCl2), 1 μg/mL DnaseI, 5 mM β-Mercaptoethanol (βME), Protease inhibitor—Ethylenediamine Tetraacetic acid (EDTA) free (Roche), homogenized and incubated for 20 minutes (min) at 4° C. The homogenate was sonicated and clarified by ultra-centrifugation at 235000 g for 1 h at 4° C. Imidazole was added to the supernatant to a final concentration of 15 mM and the pH adjusted to 8.0. The crude protein extract was loaded on a Nickel—Nitrilotriacetic acid (Ni-NTA) column pre-equilibrated with buffer B (25 mM HEPES, pH 8.0, 20% glycerol, 500 mM NaCl, 0.5% Triton X-100, 15 mM imidazole, 5 mM βME). The sample was loaded at a flow rate of 1 mL/min. The column was washed with 15 column volumes of buffer C (same as buffer B except with 0.2% Triton X-100). […]

[2] = test system: HCV replicon in HUH-7 cells; assay: HCV replicon FRET assay; format: cell-based, Hepatitis C virus (strain 1b); settings: HCV replicon cell assay, HUH-7, read-out: EC50 Range
Source text: Generation of HCV Replicon
An HCV replicon whole cell system was established as described by Lohmann V, Korner F, Koch J, Herian U, Theilmann L, Bartenschlager R., Science 285(5424):110-3 (1999). This system enabled us to evaluate the effects of our HCV Protease compounds on HCV RNA replication. Briefly, using the HCV strain 1b sequence described in the Lohmann paper (Assession number:AJ238799), an HCV cDNA was synthesized by Operon Technologies, Inc. (Alameda, Calif.), and the full-length replicon was then assembled in plasmid pGem9zf(+) (Promega, Madison, Wis.) using standard molecular biology techniques. The replicon consists of (i) the HCV 5′ UTR fused to the first 12 amino acids of the capsid protein, (ii) the neomycin phosphotransferase gene (neo), (iii) the IRES from encephalomyocarditis virus (EMCV), and (iv) HCV NS3 to NS5B genes and the HCV 3′ UTR. Plasmid DNAs were linearized with ScaI and RNA transcripts were synthesized in vitro using the T7 MegaScript transcription kit (Ambion, Austin, Tex.) according to manufacturer's directions. In vitro transcripts of the cDNA were transfected into the human hepatoma cell line, HUH-7. […] Resulting cell lines were characterized for positive and negative strand RNA production and protein production over time.
The HCV replicon FRET assay was developed to monitor the inhibitory effects of compounds described in the disclosure on HCV viral replication. HUH-7 cells, constitutively expressing the HCV replicon, were grown in Dulbecco's Modified Eagle Media (DMEM) (Gibco-BRL) containing 10% Fetal calf serum (FCS) (Sigma) and 1 mg/mL G418 (Gibco-BRL). Cells were seeded the night before (1.5×10^4 cells/well) in 96-well tissue-culture sterile plates. Compound and no compound controls were prepared in DMEM containing 4% FCS, 1:100 Penicillin/Streptomysin (Gibco-BRL), 1:100 L-glutamine and 5% DMSO in the dilution plate (0.5% DMSO final concentration in the assay). Compound/DMSO mixes were added to the cells and incubated for 4 days at 37° C. After 4 days, cells were first assessed for cytotoxicity using alamar Blue (Trek Diagnotstic Systems) for a CC50 reading. The toxicity of compound (CC50) was determined by adding 1/10th volume of alamar Blue to the media incubating the cells. After 4 h, the fluorescence signal from each well was read, with an excitation wavelength at 530 nm and an emission wavelength of 580 nm, using the Cytofluor Series 4000 (Perspective Biosystems). Plates were then rinsed thoroughly with Phosphate-Buffered Saline (PBS) (3 times 150 μl).

[3] = NS3/4A BMS strain, enzyme assay; read-out: IC 50 Range
[4] = read-out: IC 50 Range; NS3/4A BMS strain, enzyme assay

T1 sequence (P27958 1027-1657, stated change not applied, one chain of several): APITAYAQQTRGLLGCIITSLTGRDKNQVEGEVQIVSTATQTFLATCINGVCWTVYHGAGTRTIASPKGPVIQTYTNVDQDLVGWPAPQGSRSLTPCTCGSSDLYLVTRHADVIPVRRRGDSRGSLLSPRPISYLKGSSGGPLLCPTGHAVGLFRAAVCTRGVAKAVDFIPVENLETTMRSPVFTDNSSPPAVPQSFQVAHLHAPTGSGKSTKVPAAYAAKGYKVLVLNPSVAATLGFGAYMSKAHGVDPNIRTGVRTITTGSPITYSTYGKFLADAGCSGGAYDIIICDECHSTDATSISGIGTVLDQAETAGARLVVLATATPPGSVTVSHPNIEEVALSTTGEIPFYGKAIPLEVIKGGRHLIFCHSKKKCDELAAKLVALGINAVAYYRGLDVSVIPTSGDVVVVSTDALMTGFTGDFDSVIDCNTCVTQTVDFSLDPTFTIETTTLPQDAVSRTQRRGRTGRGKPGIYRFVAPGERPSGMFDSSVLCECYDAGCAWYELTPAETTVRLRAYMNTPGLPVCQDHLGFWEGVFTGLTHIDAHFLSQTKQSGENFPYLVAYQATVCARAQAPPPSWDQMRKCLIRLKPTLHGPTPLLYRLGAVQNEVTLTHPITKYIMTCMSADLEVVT

Structure (SMILES)	IC50 [1, 3]	EC50 ([2]; Hepatitis C virus)	EC50 [2]	IC50 [1, 4]
C=CC1CC1(NC(=O)[C@@H]1C[C@@H](NC(=O)c2cc3ccccc3n2C)CN1C(=O)[C@@H](NC(=O)CC1CC1)C(C)(C)C)C(=O)NS(=O)(=O)C1CC1 (some centres unmarked) [Compound 26]	< 150 nM	150 to 15000 nM		
C=CC1CC1(NC(=O)[C@@H]1C[C@@H](NC(=O)n2ccc3cccnc32)CN1C(=O)[C@@H](NC(=O)CC1CC1)C(C)(C)C)C(=O)NS(=O)(=O)C1CC1 (some centres unmarked) [Compound 50]	< 150 nM	150 to 15000 nM		
C=CC1CC1(NC(=O)[C@@H]1C[C@@H](NC(=O)c2sc3ccccc3c2Cl)CN1C(=O)[C@@H](NC(=O)CC1CC1)C(C)(C)C)C(=O)NS(=O)(=O)C1CC1 (single isomer, unassigned) [Compound 4]	< 150 nM		150 to 15000 nM	
C=CC1CC1(NC(=O)[C@@H]1C[C@@H](NC(=O)c2ccncc2)CN1C(=O)[C@@H](NC(=O)CC1CC1)C(C)(C)C)C(=O)NS(=O)(=O)C1CC1 (some centres unmarked) [Compound 14]	150 to 15000 nM	> 15000 nM		
C=CC1CC1(NC(=O)[C@@H]1C[C@@H](NC(=O)c2cn(C)c3ccccc23)CN1C(=O)[C@@H](NC(=O)CC1CC1)C(C)(C)C)C(=O)NS(=O)(=O)C1CC1 (some centres unmarked) [Compound 19]		> 15000 nM		< 150 nM
C=CC1CC1(NC(=O)[C@@H]1C[C@@H](NC(=O)c2c(C)nc3sccn23)CN1C(=O)[C@@H](NC(=O)CC1CC1)C(C)(C)C)C(=O)NS(=O)(=O)C1CC1 (some centres unmarked) [Compound 20]	< 150 nM	> 15000 nM		
C=CC1CC1(NC(=O)[C@@H]1C[C@@H](NC(=O)c2cccc3c2OCC3)CN1C(=O)[C@@H](NC(=O)CC1CC1)C(C)(C)C)C(=O)NS(=O)(=O)C1CC1 (some centres unmarked) [Compound 30]	150 to 15000 nM	> 15000 nM		
C=CC1CC1(NC(=O)[C@@H]1C[C@@H](NC(=O)c2c(-c3ccc(Cl)cc3)cn3ccccc23)CN1C(=O)[C@@H](NC(=O)CC1CC1)C(C)(C)C)C(=O)NS(=O)(=O)C1CC1 (some centres unmarked) [Compound 21]	< 150 nM	150 to 15000 nM		
C=CC1CC1(NC(=O)[C@@H]1C[C@@H](NC(=O)c2cc3ccccc3o2)CN1C(=O)[C@@H](NC(=O)CC1CC1)C(C)(C)C)C(=O)NS(=O)(=O)C1CC1 (some centres unmarked) [Compound 27]	< 150 nM	150 to 15000 nM		
C=CC1CC1(NC(=O)[C@@H]1C[C@@H](NC(=O)N2CCc3ccccc3C2)CN1C(=O)[C@@H](NC(=O)CC1CC1)C(C)(C)C)C(=O)NS(=O)(=O)C1CC1 (some centres unmarked) [Compound 54]				150 to 15000 nM
C=CC1CC1(NC(=O)[C@@H]1C[C@@H](NC(=O)c2sc3ccccc3c2Cl)CN1C(=O)[C@@H](NC(=O)CC1CC1)C(C)(C)C)C(=O)O (single isomer, unassigned) [Compound 2, 1-({4-[(3-Chloro-benzo[b]thiophene-2-carbonyl)-amino]-1-[2-(2-cyclopropyl-acetylamino)-3,3-dimethyl-butyryl]-pyrrolidine-2-carbonyl}-amino)-2-vinyl-cyclopropanecarboxylic acid]	> 15000 nM			
C=CC1CC1(NC(=O)[C@@H]1C[C@@H](NC(=O)c2c(OC)cccc2OC)CN1C(=O)[C@@H](NC(=O)CC1CC1)C(C)(C)C)C(=O)NS(=O)(=O)C1CC1 (some centres unmarked) [Compound 36]	150 to 15000 nM			
C=CC1CC1(NC(=O)[C@@H]1C[C@@H](NC(=O)c2cnc(N3CCCCC3)nc2-c2ccccc2)CN1C(=O)[C@@H](NC(=O)CC1CC1)C(C)(C)C)C(=O)NS(=O)(=O)C1CC1 (some centres unmarked) [Compound 23]	150 to 15000 nM			
C=CC1CC1(NC(=O)[C@@H]1C[C@@H](N2CCN(Cc3ccccc3)CC2)CN1C(=O)[C@@H](NC(=O)OC)C(C)(C)C)C(=O)NS(=O)(=O)C1CC1 (some centres unmarked) [Compound 56]	> 15000 nM			
C=CC1CC1(NC(=O)[C@@H]1C[C@@H](NC(=O)c2sc3ccccc3c2Cl)CN1C(=O)[C@@H](NC(=O)CC1CC1)C(C)(C)C)C(=O)O (single isomer, unassigned) [Compound 1, 1-({4-[(3-Chloro-benzo[b]thiophene-2-carbonyl)-amino]-1-[2-(2-cyclopropyl-acetylamino)-3,3-dimethyl-butyryl]-pyrrolidine-2-carbonyl}-amino)-2-vinyl-cyclopropanecarboxylic acid]	150 to 15000 nM			
C=CC1CC1(NC(=O)[C@@H]1C[C@@H](N2Cc3ccccc3C2)CN1C(=O)[C@@H](NC(=O)C1CC1)C(C)(C)C)C(=O)NS(=O)(=O)C1CC1 (some centres unmarked) [Compound 57]	150 to 15000 nM			
C=CC1CC1(NC(=O)[C@@H]1C[C@@H](N(C)C(=O)c2cc(-c3ccccc3)nc3ccccc23)CN1C(=O)[C@@H](NC(=O)OC(C)(C)C)C(C)(C)C)C(=O)NS(=O)(=O)C1CC1 (some centres unmarked) [Compound 42]	150 to 15000 nM			
C=CC1CC1(NC(=O)[C@@H]1C[C@@H](NC(=O)c2ccncc2)CN1C(=O)[C@@H](NC(=O)CC1CC1)C(C)(C)C)C(=O)NS(=O)(=O)C1CC1 (some centres unmarked) [Compound 15]	150 to 15000 nM			
C=CC1CC1(NC(=O)[C@@H]1C[C@@H](NC(=S)Nc2cccc3ccccc23)CN1C(=O)[C@@H](NC(=O)OC(C)(C)C)C(C)(C)C)C(=O)NS(=O)(=O)C1CC1 (some centres unmarked) [Compound 46]				150 to 15000 nM
C=CC1CC1(NC(=O)[C@@H]1C[C@@H](NC(=O)c2ccnc3ccccc23)CN1C(=O)[C@@H](NC(=O)CC1CC1)C(C)(C)C)C(=O)NS(=O)(=O)C1CC1 (some centres unmarked) [Compound 11]	150 to 15000 nM			
